In patent US11357779B2 (G1 Therapeutics, Inc., priority 2018, dated 2022):
Like-named read-outs stand apart in the source and are kept apart here.

Experiment: Plasma concentration versus time of Compound I and metabolite Compound III in patients dosed QD or BID with Form B of Compound II plus fulvestrant
Assay type: in vivo, human
Details: human, plasma, oral; for concentration at 8 day: Day 8; for concentration at 15 day: Day 15; for concentration at 22 day: Day 22
Text: Patients were enrolled into 1 of 2 parallel, independently operating, dose-escalation dosing cohorts with Form B of Compound II administered continuously either once daily (QD) or twice daily (BID) with food with fixed-dose fulvestrant (intramuscularly every 14 days for the first three injections and then every 28 days). Pre- or perimenopausal patients also received goserelin for the duration of study treatment. A […] agonist was started at least 28 days before the first dose of Form B, and those patients who were taking another LHRH agonist were switched to goserelin on Day 1. Patients were split into […] cohorts providing once a day (QD) dosing of 200 mg, 300 mg, 400 mg, 500 mg, or 650 mg of Form B, or twice a day (BID) dosing of 100 mg, 150 mg, or 200 mg of Form B. The second dose in BID cohorts was not administered in the evening until at least 12 hours after the initial morning dose of Form B. The dosing cohorts for Form B of Compound II are provided in Table 1.
Blood samples were collected at the following time points relative to the morning dose of Form B at Day 1 and at Day 29: pre-dose (0 hour) and 1, 2, 3, 4, 6, 8, 10, 12 (prior to the evening dose in the BID cohorts), and 24 (prior to the next day's morning dose) hours after dosing. A 5-minute time window was allowed for samples collected between the predose and 3 hours after Form B dosing. A 15-minute window was allowed for samples collected between 4 to 12 hours after Form B dosing. A 1-hour window was allowed for the sample collected 24 hours after Form B dosing. Blood samples for Compound I PK trough levels were collected pre-dose at Day 8, Day 15, and Day 22 prior to the morning administration of Compound I. Plasma concentrations of Compound I and its metabolite, Compound III, were measured using validated methods.
Analysis of plasma concentration versus time data for calculation of standard pharmacokinetic (PK) parameters following oral administration was conducted using Phoenix WinNonlin version 6.3 using actual blood sampling times.

[1] = 650 mg, Cohort 5, 650 mg QD of Form B, read-out: Trough Compound III Concentration, Max
[2] = 650 mg, Cohort 5, 650 mg QD of Form B, read-out: Trough Compound III Concentration, Mean
[3] = 650 mg, Cohort 5, 650 mg QD of Form B, read-out: Trough Compound III Concentration, Median
[4] = 650 mg, Cohort 5, 650 mg QD of Form B, read-out: Trough Compound III Concentration, Min

- concentration at 8 h (500 mg, Cohort 4, 500 mg QD of Form B, Day 29, 8.0 h, read-out: Compound III Concentration, Mean): 3.56 ng/mL
- concentration at 8 h (500 mg, Cohort 4, 500 mg QD of Form B, Day 29, 8.0 h, read-out: Compound III Concentration, Min): 3.3 ng/mL
- concentration at 10 h (500 mg, Cohort 4, 500 mg QD of Form B, Day 29, 10.0 h, read-out: Compound III Concentration, Max): 2.88 ng/mL
- concentration at 10 h (500 mg, Cohort 4, 500 mg QD of Form B, Day 29, 10.0 h, read-out: Compound III Concentration, Mean): 2.66 ng/mL
- concentration at 10 h (500 mg, Cohort 4, 500 mg QD of Form B, Day 29, 10.0 h, read-out: Compound III Concentration, Min): 2.52 ng/mL
- concentration at 12 h (500 mg, Cohort 4, 500 mg QD of Form B, Day 29, 12.0 h, read-out: Compound III Concentration, Max): 2.55 ng/mL
- concentration at 12 h (500 mg, Cohort 4, 500 mg QD of Form B, Day 29, 12.0 h, read-out: Compound III Concentration, Mean): 2.33 ng/mL
- concentration at 12 h (500 mg, Cohort 4, 500 mg QD of Form B, Day 29, 12.0 h, read-out: Compound III Concentration, Min): 2.1 ng/mL
- concentration at 24 h (500 mg, Cohort 4, 500 mg QD of Form B, Day 29, […], read-out: Compound III Concentration, Mean): 1.24 ng/mL
- concentration at 24 h (500 mg, Cohort 4, 500 mg QD of Form B, Day 29, […], read-out: Compound III Concentration, Min): 0.959 ng/mL
- concentration at 0 h (650 mg, 650 mg QD of Form B, Day 1, 0.0 h, Mean, read-out: Compound III Concentration): 0 ng/mL
- concentration at 0 h (650 mg, 650 mg QD of Form B, Day 1, 0.0 h, Median, read-out: Compound III Concentration): 0 ng/mL
- concentration at 1 h (650 mg, 650 mg QD of Form B, Day 1, 1.0 h, Mean, read-out: Compound III Concentration): 2.73 ng/mL
- concentration at 1 h (650 mg, 650 mg QD of Form B, Day 1, 1.0 h, Median, read-out: Compound III Concentration): 2.77 ng/mL
- concentration at 2 h (650 mg, 650 mg QD of Form B, Day 1, 2.0 h, Mean, read-out: Compound III Concentration): 4.01 ng/mL
- concentration at 2 h (650 mg, 650 mg QD of Form B, Day 1, 2.0 h, Median, read-out: Compound III Concentration): 3.81 ng/mL
- concentration at 3 h (650 mg, 650 mg QD of Form B, Day 1, 3.0 h, Mean, read-out: Compound III Concentration): 6.13 ng/mL
- concentration at 3 h (650 mg, 650 mg QD of Form B, Day 1, 3.0 h, Median, read-out: Compound III Concentration): 6.43 ng/mL
- concentration at 4 h (650 mg, 650 mg QD of Form B, Day 1, 4.0 h, Mean, read-out: Compound III Concentration): 8.35 ng/mL
- concentration at 4 h (650 mg, 650 mg QD of Form B, Day 1, 4.0 h, Median, read-out: Compound III Concentration): 9.22 ng/mL
- concentration at 6 h (650 mg, 650 mg QD of Form B, Day 1, 6.0 h, Mean, read-out: Compound III Concentration): 9.69 ng/mL
- concentration at 6 h (650 mg, 650 mg QD of Form B, Day 1, 6.0 h, Median, read-out: Compound III Concentration): 10 ng/mL
- concentration at 8 h (650 mg, 650 mg QD of Form B, Day 1, 8.0 h, Mean, read-out: Compound III Concentration): 10.1 ng/mL
- concentration at 8 h (650 mg, 650 mg QD of Form B, Day 1, 8.0 h, Median, read-out: Compound III Concentration): 8.66 ng/mL
- concentration at 10 h (650 mg, 650 mg QD of Form B, Day 1, 10.0 h, Mean, read-out: Compound III Concentration): 6.63 ng/mL
- concentration at 10 h (650 mg, 650 mg QD of Form B, Day 1, 10.0 h, Median, read-out: Compound III Concentration): 5.32 ng/mL
- concentration at 12 h (650 mg, 650 mg QD of Form B, Day 1, 12.0 h, Mean, read-out: Compound III Concentration): 5.12 ng/mL
- concentration at 12 h (650 mg, 650 mg QD of Form B, Day 1, 12.0 h, Median, read-out: Compound III Concentration): 4.41 ng/mL
- concentration at 24 h (650 mg, 650 mg QD of Form B, Day 1, […], Mean, read-out: Compound III Concentration): 2.17 ng/mL
- concentration at 24 h (650 mg, 650 mg QD of Form B, Day 1, […], Median, read-out: Compound III Concentration): 1.51 ng/mL
- concentration at 8 day [1]: 4.96 ng/mL
- concentration at 8 day [2]: 3.55 ng/mL
- concentration at 8 day [3]: 3.79 ng/mL
- concentration at 8 day [4]: 1.65 ng/mL
- concentration at 15 day [1]: 3.6 ng/mL
- concentration at 15 day [2]: 3.13 ng/mL
- concentration at 15 day [3]: 3.52 ng/mL
- concentration at 15 day [4]: 2.28 ng/mL
- concentration at 22 day [1]: 5.65 ng/mL
- concentration at 22 day [2]: 3.7 ng/mL
- concentration at 22 day [3]: 3.11 ng/mL
- concentration at 22 day [4]: 2.34 ng/mL
- concentration at 0 h (650 mg, Cohort 5, 650 mg QD of Form B, Day 29, 0.0 h, read-out: Compound III Concentration, Median): 2.06 ng/mL
- concentration at 0 h (650 mg, Cohort 5, 650 mg QD of Form B, Day 29, 0.0 h, read-out: Compound III Concentration, Min): 1.3 ng/mL
- concentration at 1 h (650 mg, Cohort 5, 650 mg QD of Form B, Day 29, 1.0 h, read-out: Compound III Concentration, Median): 2.49 ng/mL
- concentration at 1 h (650 mg, Cohort 5, 650 mg QD of Form B, Day 29, 1.0 h, read-out: Compound III Concentration, Min): 1.28 ng/mL
- concentration at 2 h (650 mg, Cohort 5, 650 mg QD of Form B, Day 29, 2.0 h, read-out: Compound III Concentration, Median): 3.14 ng/mL
- concentration at 2 h (650 mg, Cohort 5, 650 mg QD of Form B, Day 29, 2.0 h, read-out: Compound III Concentration, Min): 1.85 ng/mL
- concentration at 3 h (650 mg, Cohort 5, 650 mg QD of Form B, Day 29, 3.0 h, read-out: Compound III Concentration, Median): 3.89 ng/mL
- concentration at 3 h (650 mg, Cohort 5, 650 mg QD of Form B, Day 29, 3.0 h, read-out: Compound III Concentration, Min): 2.61 ng/mL
- concentration at 4 h (650 mg, Cohort 5, 650 mg QD of Form B, Day 29, 4.0 h, read-out: Compound III Concentration, Median): 4.78 ng/mL
- concentration at 4 h (650 mg, Cohort 5, 650 mg QD of Form B, Day 29, 4.0 h, read-out: Compound III Concentration, Min): 3.42 ng/mL
- concentration at 6 h (650 mg, Cohort 5, 650 mg QD of Form B, Day 29, 6.0 h, read-out: Compound III Concentration, Median): 7.57 ng/mL
- concentration at 6 h (650 mg, Cohort 5, 650 mg QD of Form B, Day 29, 6.0 h, read-out: Compound III Concentration, Min): 5.3 ng/mL
- concentration at 8 h (650 mg, Cohort 5, 650 mg QD of Form B, Day 29, 8.0 h, read-out: Compound III Concentration, Median): 8.64 ng/mL
- concentration at 8 h (650 mg, Cohort 5, 650 mg QD of Form B, Day 29, 8.0 h, read-out: Compound III Concentration, Min): 5.18 ng/mL
- concentration at 10 h (650 mg, Cohort 5, 650 mg QD of Form B, Day 29, 10.0 h, read-out: Compound III Concentration, Min): 4.64 ng/mL
- concentration at 12 h (650 mg, Cohort 5, 650 mg QD of Form B, Day 29, 12.0 h, read-out: Compound III Concentration, Min): 3.42 ng/mL
- concentration at 24 h (650 mg, Cohort 5, 650 mg QD of Form B, Day 29, […], read-out: Compound III Concentration, Median): 3.04 ng/mL
- concentration at 24 h (650 mg, Cohort 5, 650 mg QD of Form B, Day 29, […], read-out: Compound III Concentration, Min): 2.49 ng/mL
Compound: O=C1NCC2(CCCCC2)n2c1cc1cnc(Nc3ccc(N4CCNCC4)cn3)nc12 [Compound III, 2′-((5-(piperazin-1-yl)pyridin-2-yl)amino)-7′,8′-dihydro-6′H-spiro[cyclohexane-1,9′-pyrazino[1′,2′:1,5]pyrrolo[2,3-d]pyrimidin]-6′-one]
